{"source": "ChEMBL document CHEMBL1122481", "about": "“Substituted (2-phenoxyphenyl)acetic acids with antiinflammatory activity. 2” (J Med Chem, 1983)", "key": {"Rattus norvegicus [1]": {"species_on_record": "Rattus norvegicus", "test": "Antiinflammatory activity in rats, activity expressed as minimum ulcerogenic dose(MUD) for a period of 24 hr.", "format": "functional"}, "[2]": {"test": "Median lethal dose using 10 rats per dose.", "format": "ADME, organism-based", "details": "rat, in vivo"}, "Rattus norvegicus [3]": {"tested_on": "Rattus norvegicus", "test": "Antiinflammatory activity in rats, at a dose of 0.08 mg/kg po, using adjuvant-induced arthritis test", "format": "functional"}, "Rattus norvegicus [4]": {"tested_on": "Rattus norvegicus", "test": "Antiinflammatory activity in rats, at a dose of 10 mg/kg po(significant toxicity at 100 mg/kg), activity expressed as minimum ulcerogenic dose(MUD) for a period of 24 hr; Value ranges from (200-400)", "format": "functional"}, "Rattus norvegicus [5]": {"tested_on": "Rattus norvegicus", "test": "Antiinflammatory activity in rats, at a dose of 10 mg/kg po(significant toxicity at 100 mg/kg), by adjuvant-induced arthritis test", "format": "functional"}, "Rattus norvegicus [6]": {"species_on_record": "Rattus norvegicus", "test": "Potency measured relative to that of fenclofenac", "format": "functional"}, "Rattus norvegicus [7]": {"tested_on": "Rattus norvegicus", "test": "Antiinflammatory activity in rats, at a dose of 10 mg/kg po, activity expressed as minimum ulcerogenic dose(MUD) for a period of 24 hr; Value ranges from (100-200)", "format": "functional"}, "Rattus norvegicus [8]": {"tested_on": "Rattus norvegicus", "test": "Antiinflammatory activity in rats, at a dose of 10 mg/kg po(showed some toxicity at this dose level), using adjuvant-induced arthritis test", "format": "functional"}, "Rattus norvegicus [9]": {"tested_on": "Rattus norvegicus", "test": "Antiinflammatory activity in rats, at a dose of 2 mg/kg po, using adjuvant-induced as arthritis test", "format": "functional"}, "Rattus norvegicus [10]": {"species_on_record": "Rattus norvegicus", "test": "Potency measured relative to that of fenclofenac.", "format": "functional"}, "Rattus norvegicus [11]": {"tested_on": "Rattus norvegicus", "test": "Antiinflammatory activity in rats, at a dose of 100 mg/kg po, using adjuvant-induced arthritis test", "format": "functional"}, "Rattus norvegicus [12]": {"tested_on": "Rattus norvegicus", "test": "Antiinflammatory activity in rats, at a dose of 100 mg/kg po, activity expressed as minimum ulcerogenic dose(MUD) for a period of 24 hr; Value ranges from (400-800)", "format": "functional"}}, "data": [{"compound": "COc1ccc2c(c1)c(CC(=O)O)c(C)n2C(=O)c1ccc(Cl)cc1", "note": "[INDOMETHACIN]", "values": [{"measurement": "MUD", "setting": "Rattus norvegicus [1]", "value": 1.25, "unit": "mg/kg"}, {"measurement": "LD50", "setting": "[2]", "value": 19.8, "unit": "mg/kg"}]}, {"compound": "O=C(O)Cc1ccccc1[S+]([O-])c1c(Cl)c(Cl)cc(Cl)c1Cl", "note": "(stereo unspecified)", "values": [{"measurement": "inhibition in vivo at 0.08 mg/kg", "setting": "Rattus norvegicus [3]", "value": 19, "unit": "%"}]}, {"compound": "O=C(O)Cc1ccccc1Oc1c(Cl)ccc(Cl)c1Cl", "values": [{"measurement": "MUD", "setting": "Rattus norvegicus [4]", "value": 400, "unit": "mg/kg"}, {"measurement": "Inhibition", "setting": "Rattus norvegicus [5]", "value": 51, "unit": "%"}, {"measurement": "Relative potency", "setting": "Rattus norvegicus [6]", "value": 14}]}, {"compound": "O=C(O)Cc1ccccc1Oc1cc(Cl)cc(Cl)c1Cl", "values": [{"measurement": "Inhibition", "setting": "Rattus norvegicus [5]", "value": 21, "unit": "%"}, {"measurement": "Relative potency", "setting": "Rattus norvegicus [6]", "value": 1.5}]}, {"compound": "O=C(O)Cc1ccccc1Oc1c(Cl)c(Cl)cc(Cl)c1Cl", "values": [{"measurement": "MUD", "setting": "Rattus norvegicus [7]", "value": 200, "unit": "mg/kg"}, {"measurement": "inhibition in vivo at 10 mg/kg", "setting": "Rattus norvegicus [8]", "value": 44, "unit": "%"}, {"measurement": "inhibition in vivo at 2 mg/kg", "setting": "Rattus norvegicus [9]", "value": 38, "unit": "%"}, {"measurement": "LD50", "setting": "[2]", "value": 303, "unit": "mg/kg"}, {"measurement": "Relative potency", "setting": "Rattus norvegicus [10]", "value": 40}]}, {"compound": "O=C(O)Cc1ccccc1Oc1c(Cl)cc(Cl)c(Cl)c1Cl", "values": [{"measurement": "Inhibition", "setting": "Rattus norvegicus [5]", "value": 43, "unit": "%"}, {"measurement": "Relative potency", "setting": "Rattus norvegicus [6]", "value": 8}]}, {"compound": "O=C(O)Cc1ccccc1Oc1ccc(Cl)cc1Cl", "note": "[FENCLOFENAC]", "values": [{"measurement": "inhibition in vivo at 100 mg/kg", "setting": "Rattus norvegicus [11]", "value": 35, "unit": "%"}, {"measurement": "MUD", "setting": "Rattus norvegicus [12]", "value": 800, "unit": "mg/kg"}, {"measurement": "Relative potency", "setting": "Rattus norvegicus [10]", "value": 1}]}, {"compound": "O=C(O)Cc1ccccc1Sc1c(Cl)c(Cl)cc(Cl)c1Cl", "values": [{"measurement": "Relative potency", "setting": "Rattus norvegicus [6]", "value": 0.21}, {"measurement": "inhibition in vivo at 0.08 mg/kg", "setting": "Rattus norvegicus [3]", "value": "< 22", "unit": "%"}]}, {"compound": "O=C(O)Cc1ccccc1Nc1c(Cl)c(Cl)cc(Cl)c1Cl", "values": [{"measurement": "inhibition in vivo at 0.08 mg/kg", "setting": "Rattus norvegicus [3]", "value": 18, "unit": "%"}]}]}
